Test results: ChEMBL document CHEMBL1201862, “PubChem BioAssay data set” (2004)
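Five concentrations, 48 hours, 96-well plates. GI50 = concentration required for 50% inhibition of growth.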 Active and inactive are the calls of the source. No stated cut-off is given here; in the data, active = GI50 up to about 1.1 µM and inactive = higher.

Assays:
Experiment in all cases: DTP human tumour cell line panel, 48 h
[1] = test system: Hs-578T
[2] = test system: IGROV-1
[3] = test system: TK-10
[4] = test system: A549
[5] = test system: ACHN
[6] = test system: HL-60
[7] = test system: PC-3
[8] = test system: KM12
[9] = test system: A498
[10] = test system: MCF7
[11] = test system: DU-145
[12] = test system: NCI-H460
[13] = test system: MDA-N
[14] = test system: SF-539
[15] = test system: UACC-257
[16] = test system: NCI-H522
[17] = test system: UO-31
[18] = test system: SR
[19] = test system: UACC-62
[20] = test system: HCC 2998
[21] = test system: M14
[22] = test system: SNB-75
[23] = test system: K562
[24] = test system: NCI-H226
[25] = test system: SK-OV-3
[26] = test system: SK-MEL-5
[27] = test system: OVCAR-5
[28] = test system: EKVX
[29] = test system: NCI/ADR-RES
[30] = test system: OVCAR-4
[31] = test system: SN12C
[32] = test system: HCT-116
[33] = test system: MDA-MB-435
[34] = test system: MDA-MB-231
[35] = test system: SNB-19
[36] = test system: CCRF-CEM
[37] = test system: SK-MEL-2
[38] = test system: COLO 205
[39] = test system: LOX IMVI
[40] = test system: BT-549
[41] = test system: HOP-62
[42] = test system: NCI-H23
[43] = test system: SF-268
[44] = test system: SK-MEL-28
[45] = test system: OVCAR-8
[46] = test system: RPMI-8226
[47] = test system: OVCAR-3
[48] = test system: SW-620
[49] = test system: T47D
[50] = test system: U-251
[51] = test system: MOLT-4
[52] = test system: Malme-3M
[53] = test system: HCT-15
[54] = test system: RXF 393
[55] = test system: SF-295
[56] = test system: HT-29

O=C1c2cc3c(cc2CC1Cc1ccc2c(c1)CCC2)CCC3 (stereo unspecified)
GI50 [1]: 32.4 µM (inactive) | GI50 [2]: 31.6 µM (inactive) | GI50 [3]: > 100 µM (inactive) | GI50 [4]: 64.4 µM (inactive) | GI50 [5]: 48.4 µM (inactive) | GI50 [6]: 66.2 µM (inactive) | GI50 [7]: 72.9 µM (inactive) | GI50 [8]: > 100 µM (inactive) | GI50 [9]: 32.3 µM (inactive) | GI50 [10]: 93.1 µM (inactive) | GI50 [11]: 54 µM (inactive) | GI50 [12]: 34.4 µM (inactive) | GI50 [13]: 51.4 µM (inactive) | GI50 [14]: 33.3 µM (inactive) | GI50 [15]: 87.7 µM (inactive) | GI50 [16]: 24.1 µM (inactive) | GI50 [17]: > 100 µM (inactive) | GI50 [18]: 29.9 µM (inactive) | GI50 [19]: 52 µM (inactive) | GI50 [20]: 36.7 µM (inactive) | GI50 [21]: > 100 µM (inactive) | GI50 [22]: 13.4 µM (inactive) | GI50 [23]: 69.5 µM (inactive) | GI50 [24]: 24.2 µM (inactive) | GI50 [25]: 85.1 µM (inactive) | GI50 [26]: 57.8 µM (inactive) | GI50 [27]: > 100 µM (inactive) | GI50 [28]: > 100 µM (inactive) | GI50 [29]: 65.3 µM (inactive) | GI50 [30]: 82.6 µM (inactive) | GI50 [31]: 41.4 µM (inactive) | GI50 [32]: 38.6 µM (inactive) | GI50 [33]: 76 µM (inactive) | GI50 [34]: 26.4 µM (inactive) | GI50 [35]: 34.3 µM (inactive) | GI50 [36]: 44.6 µM (inactive) | GI50 [37]: 48.8 µM (inactive) | GI50 [38]: 25 µM (inactive) | GI50 [39]: 66.1 µM (inactive) | GI50 [40]: 81.3 µM (inactive) | GI50 [41]: 72.4 µM (inactive) | GI50 [42]: 44.7 µM (inactive) | GI50 [43]: 35.6 µM (inactive) | GI50 [44]: > 100 µM (inactive) | GI50 [45]: 81.7 µM (inactive) | GI50 [46]: 40.5 µM (inactive) | GI50 [47]: 63.4 µM (inactive) | GI50 [48]: 45.5 µM (inactive) | GI50 [49]: 10.9 µM (inactive) | GI50 [50]: 37.3 µM (inactive) | GI50 [51]: 36.6 µM (inactive) | GI50 [52]: 79.6 µM (inactive) | GI50 [53]: 47.5 µM | GI50 [54]: 57.7 µM (inactive) | GI50 [55]: 23.5 µM (inactive) | GI50 [56]: 40 µM (inactive)
